Assay results from patent publication US20120071475A1, “UREA DERIVATIVES HAVING PI3K-INHIBITING ACTIVITY” (SHIONOGI & CO., LTD., priority 2009, published 2012).

Key:
[1] = tested on: CYP1A2, CYP2C9, CYP2C19, CYP2D6 and CYP3A4 (one value for the five species); experiment: CYP inhibition test, five CYP species together (5CYPs_IC50; pooled human liver microsome); assay type: in vitro ADME; conditions: human, microsomes
Description: O-de-ethylation of 7-ethoxyresorufin (CYP1A2), methyl-hydroxylation of tolbutamide (CYP2C9), 4′-hydroxylation of mephenyloin (CYP2C19), O-demethylation of dextromethorphan (CYP2D6), and hydroxylation of terfenadine (CYP3A4), which are typical substrate for metabolic reactions of human main CYP5 molecular species (CYP1A2, 2C9, 2C19, 2D6, and 3A4), were adopted as indexes.
The reaction conditions are as follows: substrate: 0.5 μmol/L of ethoxyresorufin (CYP1A2), 100 μmol/L of tolbutamide (CYP2C9), 50 μmol/L of S-mephenyloin (CYP2C19), 5 μmol/L of dextromethorphan (CYP2D6), and 1 μmol/L of terfenadine (CYP3A4); reaction time; 15 minutes; reaction temperature: 37° C.; enzyme: pooled human liver microsome 0.2 mg protein/mL; test drug concentration: 1, 5, 10, and 20 μmol/L (4 points).
In a 96-well plate, as a reaction solution, five kinds of substrates, a human liver microsome, and a test drug were added to 50 mmol/L Hepes buffer solution in the aforementioned ratio. A coenzyme NADPH was added to start a metabolic reaction, which is an index. After reacting at 37° C. for 15 minutes, a solution of methanol/acetonitrile (1/1 (v/v)) was added to quench the reaction. After centrifugation at 3000 rpm for 15 minutes, resorufin (CYP1A2 metabolite) in the supernatant was quantitated with a fluorescence multilabel counter, and hydroxylated tolbutamide (CYP2C9 metabolite), 4′-hydroxylated mephenyloin (CYP2C19 metabolite), […], terfenadine in alcohol form (CYP3A4 metabolite) were quantitated with LC/MS/MS.
The case wherein only DMSO (a solvent which dissolved a drug) was added to a reaction system was defined as a control (100%). When a test drug solution was added, the remaining activity (%) at each concentration was calculated, and then IC50 was calculated with a concentration and an inhibition ratio by an inverse estimation using a logistic model.

CYP3A4 = target: T1, CYP3A4 (Homo sapiens, UniProt P08684); experiment: CYP3A4 fluorescence MBI test; assay type: in vitro ADME; conditions: difference in IC50 with 0 or 30 minutes pre-reaction; CYP3A4 expressed in E. coli, substrate 7-BFC
T1 construct: host or cells: E. coli
T1 sequence (P08684 whole entry): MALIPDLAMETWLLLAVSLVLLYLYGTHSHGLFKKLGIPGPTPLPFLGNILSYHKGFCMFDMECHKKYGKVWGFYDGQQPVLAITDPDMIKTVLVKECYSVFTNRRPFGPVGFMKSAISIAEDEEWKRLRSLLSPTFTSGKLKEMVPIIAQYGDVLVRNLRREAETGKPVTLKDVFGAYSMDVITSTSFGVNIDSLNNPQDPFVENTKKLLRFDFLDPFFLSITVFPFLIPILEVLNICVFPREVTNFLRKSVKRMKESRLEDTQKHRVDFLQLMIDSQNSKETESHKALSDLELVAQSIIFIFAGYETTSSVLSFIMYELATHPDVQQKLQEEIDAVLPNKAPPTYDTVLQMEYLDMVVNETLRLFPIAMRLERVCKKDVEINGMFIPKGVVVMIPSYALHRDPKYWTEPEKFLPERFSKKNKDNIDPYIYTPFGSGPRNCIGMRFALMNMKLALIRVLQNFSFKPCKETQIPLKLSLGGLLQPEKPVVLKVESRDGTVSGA
Procedure, shortened: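 E. coli-expressed CYP3A4 debenzylating 5.6 μmol/L 7-BFC to fluorescent 7-HFC (Ex 420/Em 535 nm) in K-Pi pH 7.4 at 25° C, 15 min reaction. NADPH pre-incubation of 0 or 30 min, with 10-fold dilution before reaction. IC50 from 0.625–20 μmol/L (6 points); (+) for an IC50 shift ≥5 μmol/L, (−) for ≤3 μmol/L.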

hERG channel (IKr) = target: T2, hERG channel (IKr) (Homo sapiens, UniProt Q12809); experiment: hERG test (whole-cell patch-clamp, IKr in HEK293 cells); assay type: cell-based; conditions: human, HEK293 cells expressing hERG channel, pH 7.4, inhibition of maximum tail current (IKr), compound 1 μM
T2 construct: expressed in transfected cells; host or cells: HEK293
T2 sequence (Q12809 whole entry): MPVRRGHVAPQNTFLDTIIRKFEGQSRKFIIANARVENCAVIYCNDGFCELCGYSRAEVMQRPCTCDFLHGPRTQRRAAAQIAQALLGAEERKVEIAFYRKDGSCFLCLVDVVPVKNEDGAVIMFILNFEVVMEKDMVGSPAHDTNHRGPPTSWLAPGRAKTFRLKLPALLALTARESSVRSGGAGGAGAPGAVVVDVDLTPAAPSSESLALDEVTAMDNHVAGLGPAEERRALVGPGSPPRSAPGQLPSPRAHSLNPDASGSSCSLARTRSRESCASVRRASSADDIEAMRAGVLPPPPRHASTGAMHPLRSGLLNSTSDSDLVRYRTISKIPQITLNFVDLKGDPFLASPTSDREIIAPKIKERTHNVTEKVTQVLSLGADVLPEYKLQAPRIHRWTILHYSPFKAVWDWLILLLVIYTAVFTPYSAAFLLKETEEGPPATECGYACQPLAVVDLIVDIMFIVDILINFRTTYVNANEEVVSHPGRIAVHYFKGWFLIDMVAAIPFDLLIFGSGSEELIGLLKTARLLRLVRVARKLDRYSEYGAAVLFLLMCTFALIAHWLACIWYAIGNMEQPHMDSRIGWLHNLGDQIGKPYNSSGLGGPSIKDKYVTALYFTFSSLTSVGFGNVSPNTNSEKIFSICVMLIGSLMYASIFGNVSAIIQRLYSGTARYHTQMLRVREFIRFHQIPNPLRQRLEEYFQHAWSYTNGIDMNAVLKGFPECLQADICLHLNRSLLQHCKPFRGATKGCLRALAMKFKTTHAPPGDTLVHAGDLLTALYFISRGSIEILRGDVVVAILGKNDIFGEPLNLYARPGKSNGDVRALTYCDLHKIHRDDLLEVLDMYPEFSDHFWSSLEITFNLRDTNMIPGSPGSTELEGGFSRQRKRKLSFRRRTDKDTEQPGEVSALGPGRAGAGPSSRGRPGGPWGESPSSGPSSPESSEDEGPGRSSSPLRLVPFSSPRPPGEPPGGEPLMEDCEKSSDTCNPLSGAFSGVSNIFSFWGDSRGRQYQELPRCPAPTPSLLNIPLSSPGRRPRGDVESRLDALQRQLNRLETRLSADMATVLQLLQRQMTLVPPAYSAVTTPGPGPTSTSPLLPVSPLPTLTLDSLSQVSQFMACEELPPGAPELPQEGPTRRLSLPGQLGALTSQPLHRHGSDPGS
Description: For the purpose of risk evaluation of QT interval extension of electrocardiogram, the activity on delayed rectification K^+ current (IKr), which plays an important role in a cardiac ventricle repolarization process, was examined using the HEK293 cell that was made to express human ether-a-go-go related gene (hERG) channel.
Using an automatic patch-clamp system (PatchXpress 7000A, Axon Instruments Inc.), by a whole-cell patch-clamp method, after the cell was maintained at a membrane potential of −80 mV, IKr induced upon applying depolarizing stimulation of +50 mV for 2 seconds and further applying repolarizing stimulation of −50 mV for 2 seconds was recorded. After generated electric current became stable, a test substance dissolved at an intended concentration in extracellular fluid (137 mmol/L NaCl, 4 mmol/L KCl, 1.8 mmol/L CaCl2.2H2O, 1 mmol/L MgCl2.6H2O, 10 mmol/L glucose, 10 mmol/L HEPES (4-(2-hydroxyethyl)-1-piperazineethanesulfonic acid), pH=7.4) was applied to the cell for 10 minutes under room temperature condition. From the obtained IKr, the absolute value of the maximum tail current was measured using analysis software (DataXpress ver. 1, Molecular Devices Corporation) and the value of the electric current in a maintained membrane potential as baseline. Moreover, an inhibition ratio for the maximum tail current prior to the application of the test substance was calculated and then compared with a group of media-application (0.1% dimethylsulfoxide solution) to evaluate influence of the test substance on IKr.

AKT phosphorylation = AKT phosphorylation inhibitory activity in MCP-1 stimulated THP-1 cells (sandwich ELISA); assay type: cell-based, Human; conditions: Homo sapiens, compound at 1 μmol/L, MCP-1 stimulation, read-out: AKT phosphorylation inhibition ratio
Method: (1) The AKT phosphorylation inhibitory activity of a compound was evaluated according to the following procedure. (2) Human monocyte-like cell line THP-1 was washed with RPMI-1640 media, incubated in the presence of 5% CO2 at 37° C. for 3 hours, washed with Hank's balanced salt solution (HBSS), adjusted to a cell concentration of 6.7×10^6/mL, and then used in an experiment. (3) 30 μL of the cell suspension and 60 μL of each compound solution containing 0.2% DMSO/HBSS were mixed and then preincubated at 37° C. for 5 minutes. 30 μL of HBSS containing 1.2 μg/mL of MCP-1 was added thereto and then incubated for 60 seconds at 37° C. (4) 30 μL of a cell lysate (the final concentrations: 20 mmol/L Tris-HCl (pH 7.5), 150 mmol/L NaCl, 1 mmol/L EDTA, 1 mmol/L EDTA, 1% Triton X-100, 2.5 mmol/L sodium pyrophosphate, 1 mmol/L β-glycerophosphate, 1 mmol/L Na3VO4, 1 μg/ml leupeptin, 50 nmol/L APMSF) was added thereto to lyse cells. (5) The amount of AKT phosphorylation in the cell solution was measured by sandwich ELISA method using anti-Phospho-Akt (Ser473) antibody and anti-AKT1 antibody. (6) Anti-Phospho-Akt (Ser473) antibodies or anti-AKT1 antibodies were immobilized onto the solid phase of a micro well plate. The prepared cell lysate was added to the micro well plate, incubated, and then washed with ELISA wash solution. (7) An anti-AKT1 antibody or anti-Phospho-Akt (Ser473) antibody, which forms a counterpart to an antibody immobilized on the solid phase, was added thereto, incubated, washed similarly, and then reacted with an HRP-labeled anti-mouse IgG antibody. (8) After incubating for 30 minutes and then washing similarly, 100 μL of TMB (3,3′,5,5″-tetramethylbenzidine) was added thereto, followed by reacting for 30 minutes. (9) 100 μL of stop solution was added to quench the color reaction, and then the absorbance at 450 nm was measured. (10) The amount of AKT phosphorylation in a sample in the absence of a compound was defined as 100% activity, and the amount of AKT phosphorylation in a sample in the absence of MCP-1 was defined as 0% activity to calculate an inhibition ratio of each compound. The measurement was performed for a 1 μmol/L solution of each compound.

PI3Kγ [2] = target: T3, PI3Kγ (Homo sapiens, UniProt P48736); experiment: PI3Kγ inhibitory activity (PI3-kinase HTRF assay, inhibition ratio); assay type: biochemical; conditions: 0.5 h, compound at 10 μmol/L; read-out: PI3Kg Inhibition Ratio % (10 μM)
T3 sequence (P48736 whole entry, species assumed): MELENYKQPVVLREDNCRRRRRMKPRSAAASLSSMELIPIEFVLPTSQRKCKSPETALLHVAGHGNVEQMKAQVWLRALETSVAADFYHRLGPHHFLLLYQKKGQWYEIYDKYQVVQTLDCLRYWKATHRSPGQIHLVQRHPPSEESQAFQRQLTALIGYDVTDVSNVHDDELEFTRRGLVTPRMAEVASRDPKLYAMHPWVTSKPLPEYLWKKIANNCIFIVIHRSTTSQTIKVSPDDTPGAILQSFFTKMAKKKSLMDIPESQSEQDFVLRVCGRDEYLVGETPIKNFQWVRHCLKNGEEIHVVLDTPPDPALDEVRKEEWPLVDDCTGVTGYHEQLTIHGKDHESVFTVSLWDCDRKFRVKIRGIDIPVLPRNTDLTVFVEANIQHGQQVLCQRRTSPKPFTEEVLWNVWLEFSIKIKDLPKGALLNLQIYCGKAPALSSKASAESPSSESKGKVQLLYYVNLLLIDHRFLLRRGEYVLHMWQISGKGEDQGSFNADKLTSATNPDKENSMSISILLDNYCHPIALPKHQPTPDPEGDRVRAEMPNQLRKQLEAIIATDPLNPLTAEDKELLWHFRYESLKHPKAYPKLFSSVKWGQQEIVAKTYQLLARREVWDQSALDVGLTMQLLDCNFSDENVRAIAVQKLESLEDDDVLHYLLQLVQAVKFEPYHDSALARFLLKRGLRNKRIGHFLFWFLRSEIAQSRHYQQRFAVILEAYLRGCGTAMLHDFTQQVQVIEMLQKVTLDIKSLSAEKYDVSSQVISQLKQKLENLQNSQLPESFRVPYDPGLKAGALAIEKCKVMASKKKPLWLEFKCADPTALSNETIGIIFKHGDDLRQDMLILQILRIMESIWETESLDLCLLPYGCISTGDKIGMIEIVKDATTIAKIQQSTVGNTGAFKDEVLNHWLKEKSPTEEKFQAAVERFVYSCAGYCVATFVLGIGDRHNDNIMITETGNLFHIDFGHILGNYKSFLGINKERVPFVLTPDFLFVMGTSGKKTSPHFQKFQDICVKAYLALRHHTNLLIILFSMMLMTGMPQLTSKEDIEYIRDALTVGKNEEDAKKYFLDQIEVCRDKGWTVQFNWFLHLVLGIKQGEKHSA
Procedure, shortened: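 Compound at 10 μmol/L preincubated 10 min with PI3Kγ and PIP2 substrate, then reacted with ATP for 30 minutes at room temperature; the compound, substrate and ATP figures as printed (40 μmol/L each) are solution concentrations. HTRF 665/620 nm ratio read after 18 hours. Inhibition ratio calculated against no-compound (100%) and no-enzyme (0%) controls.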

[3] = Metabolic stability test (pooled human liver microsome); assay type: in vitro ADME; conditions: percentage of test compound remained after 30 minutes, pooled human liver microsome 0.5 mg protein/mL, 1 mmol/L NADPH, 37° C., compound 0.5 μM
Procedure, shortened: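 Pooled human liver microsomes (0.5 mg protein/mL) incubated with compound and 1 mmol/L NADPH at 37° C. in pH 7.4 Tris buffer for 0 or 30 min. Parent quantified by LC/MS/MS after methanol/acetonitrile quench; value is % remaining at 30 min versus 0 min.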

PI3Kγ [4] = target: T3, PI3Kγ; experiment: PI3Kγ inhibitory activity (Ki value); assay type: biochemical; conditions: read-out: PI3Kγ Ki value
Method: The PI3Kγ inhibitory activity (Ki value) of a compound was evaluated according to the following procedure:
5 μL of a compound solution containing 10% DMSO and […] of a compound was changed to 5 μL of a compound solution containing 10% DMSO and either 200, 64, 20, 6.4, 2, 0.64, or 0.20 μmol/L of the compound (optionally, this is diluted to a lower concentration). Using a method similar to the method for measuring PI3Kγ inhibitory activity, inhibition ratios of PI3Kγ were measured in the presence of the compound at 50, 16, 5, 1.6, 0.5, 0.16, and 0.05 μmol/L (optionally, a lower concentration). Then an IC50 value was calculated by a logistic approximation method or the linear regression method using two concentrations that cross 50% inhibition. Separately, the ATP concentration in the reaction solution (40 μmol/L ATP, 10 mmol/L MgCl2, 5 mmol/L DTT) at the time of the start of a reaction in the absence of the compound was changed to 80, 40, 20, 10, 5, 2.5, 1.25, or 0.625 μmol/L. Then, HTRF ratios were measured by a similar method. The value obtained by subtracting the HTRF ratio at each ATP concentration from the HTRF ratio in the absence of PI-3 kinase y was defined as the value obtained by multiplying reaction rate (v) at each ATP concentration with a constant. The Michaelis-Menten constant Km was then calculated by the Lineweaver-Burk plot method. The Ki value of a compound was calculated by the following formula wherein “μM” denotes “μmol/L.”
Ki value ═IC50 value/(1+test ATP concentration (μM)/Km (μM))

SMILES	IC50 at 15 min [1]	inhibition at 1 µM (AKT phosphorylation)	inhibition at 10 µM (PI3Kγ [2])	further results
CC(C)NC(=O)c1ccccc1NC(=O)Nc1nc2c(s1)CN(c1ccc(C(F)(F)F)cc1)CC2 [Compound I-208]	> 20 µM			
COc1cc(N2CCc3nc(NC(=O)Nc4ccccc4C(O)CCC(C)C)sc3C2)nc(OC)n1 (stereo not shown) [Compound I-117]	> 20 µM			
COc1cncc(C2CCc3nc(NC(=O)Nc4ccccc4C(=O)NC(C)C)sc3C2)c1 (stereo not shown) [Compound I-81]	> 20 µM			MBI (CYP3A4): (−) (When 3 μmol/L or less, the compound is shown as (−))
CNS(=O)(=O)c1cncc(N2CCc3nc(NC(=O)Nc4ccccc4C(=O)NC(C)C)sc3C2)c1 [Compound I-129]		≥ 95%	≥ 95%	inhibition at 10 min, 1 µM (hERG channel (IKr)): 5.5%; MBI (CYP3A4): (−) (When 3 μmol/L or less, the compound is shown as (−))
CC(=O)c1cccc(-c2ccc3nc(NC(=O)Nc4ccccc4OCCC(C)C)sc3n2)c1 [Compound I-219]	≥ 10 µM		≥ 95%	
COc1cc(N2CCc3nc(NC(=O)Nc4ccccc4C(=O)C(C)C)sc3C2)nc(OC)n1 [Compound I-64]	≥ 10 µM			
CC(CO)NC(=O)c1ccccc1NC(=O)Nc1nc2c(s1)CN(c1cccc(F)c1)CC2 (stereo not shown) [Compound I-115]	≥ 10 µM		≥ 95%	hLMS_ox(at 0.5 μM) % [3]: 84.7%
Cc1nc(NC(=O)Nc2ccccc2C(=O)NC(C)C)sc1-c1csc(S(=O)(=O)N2CCC(O)CC2)c1 [Compound I-146]		≥ 95%	77%	Ki (PI3Kγ [4]): 0.047 µM
COc1ccc(N2CCc3nc(NC(=O)Nc4ccccc4C(=O)NC(C)C)sc3C2)cn1 [Compound I-50]	≥ 10 µM			
COc1cc(N2CCc3nc(NC(=O)Nc4ccc(F)cc4C(=O)NC(C)C)sc3C2)cnc1OC [Compound I-105]	≥ 10 µM			
COc1cc(N2CCc3nc(NC(=O)Nc4cnccc4C(=O)NC(C)C)sc3C2)nc(OC)n1 [Compound I-27]		94.1%	≥ 95%	inhibition at 10 min, 1 µM (hERG channel (IKr)): 2%; MBI (CYP3A4): (−) (When 3 μmol/L or less, the compound is shown as (−))
COc1cc(N2CCc3nc(NC(=O)Nc4cn(C)nc4C(=O)NC(C)C)sc3C2)nc(OC)n1 [Compound I-106]	≥ 10 µM			hLMS_ox(at 0.5 μM) % [3]: 83.9%
COc1cc(N2CCc3nc(NC(=O)Nc4cn(C)nc4C(=O)NCC#N)sc3C2)nc(OC)n1 [Compound I-152]		≥ 95%	≥ 95%	inhibition at 10 min, 1 µM (hERG channel (IKr)): 4.7%; hLMS_ox(at 0.5 μM) % [3]: 96.8%
COc1cc(N2CCc3nc(NC(=O)Nc4cn(C)nc4C(=O)N[C@@H](C)CO)sc3C2)nc(OC)n1 [Compound I-155]		≥ 95%	90%	inhibition at 10 min, 1 µM (hERG channel (IKr)): 2.9%; hLMS_ox(at 0.5 μM) % [3]: 95.9%
CC(=O)c1cccc(-c2ccc3nc(NC(=O)Nc4ccccc4N4CCCC4=O)nn3c2)c1 [Compound I-224]	≥ 10 µM			
